Active and inactive are the calls of the source.
Experiments:
[1] = target: T1, Short transient receptor potential channel 4 (Mus musculus, UniProt Q9QUQ5); test: mouse TRPC4 channel inhibitors, dose response, cell-based, HEK293 TRPC4/mu-opioid, Fluo-4 calcium (AID 434942); type: functional;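 note: potency of inhibitors blocking the TRPC4 calcium response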
T1 sequence (Q9QUQ5 whole entry): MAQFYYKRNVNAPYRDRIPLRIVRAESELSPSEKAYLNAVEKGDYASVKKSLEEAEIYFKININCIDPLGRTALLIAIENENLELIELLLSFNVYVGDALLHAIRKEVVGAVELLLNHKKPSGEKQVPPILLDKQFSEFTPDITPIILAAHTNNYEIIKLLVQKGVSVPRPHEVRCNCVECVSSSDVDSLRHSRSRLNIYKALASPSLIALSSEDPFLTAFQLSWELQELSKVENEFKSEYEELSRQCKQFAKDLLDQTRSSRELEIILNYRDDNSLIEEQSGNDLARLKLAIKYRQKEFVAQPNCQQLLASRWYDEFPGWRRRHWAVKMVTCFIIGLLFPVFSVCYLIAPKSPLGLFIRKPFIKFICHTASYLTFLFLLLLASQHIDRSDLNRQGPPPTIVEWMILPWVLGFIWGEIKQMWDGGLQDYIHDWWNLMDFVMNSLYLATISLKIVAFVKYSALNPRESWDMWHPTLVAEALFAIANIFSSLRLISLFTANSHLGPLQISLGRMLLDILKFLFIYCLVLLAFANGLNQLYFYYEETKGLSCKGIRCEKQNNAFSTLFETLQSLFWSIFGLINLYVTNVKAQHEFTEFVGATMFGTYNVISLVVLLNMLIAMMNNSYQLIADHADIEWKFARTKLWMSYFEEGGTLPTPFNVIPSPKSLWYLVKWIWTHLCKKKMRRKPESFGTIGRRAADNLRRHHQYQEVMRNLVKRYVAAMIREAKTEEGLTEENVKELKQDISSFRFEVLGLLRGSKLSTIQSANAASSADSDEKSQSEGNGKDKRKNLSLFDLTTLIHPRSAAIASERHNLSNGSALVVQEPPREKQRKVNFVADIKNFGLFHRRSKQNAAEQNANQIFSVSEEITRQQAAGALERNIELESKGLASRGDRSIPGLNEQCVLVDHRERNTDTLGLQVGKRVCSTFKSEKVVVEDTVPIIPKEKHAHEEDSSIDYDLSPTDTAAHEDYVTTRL

[2] = target: T1, Short transient receptor potential channel 4; test: mouse TRPC4 channel activators, dose response, cell-based, HEK293 TRPC4/mu-opioid, Fluo-4 calcium (AID 434937); type: functional
Cytochrome P450 2C19 = Cytochrome P450 2C19 (Homo sapiens, UniProt P33261); test: Cytochrome panel assay with activity outcomes. Panel member name: p450-cyp2c19 Compounds with AC50 equal or less than 10 uM are considered active; type: functional; conditions: read-out: AC50
[3] = target: Delta-type opioid receptor (Homo sapiens, UniProt P41143); test: Counterscreen for agonists of heterodimerization of the mu 1 (OPRM1) and delta 1 (OPRD1) opioid receptors: Luminescence-based cell-based high throughput dose response assay to identify agonists of OPRD1 homodimerization. [Related pubchem assays (depositor defined):AID504326, AID504355, AID504692, AID504904, AID504905]; type: functional
Mu-type opioid receptor = Mu-type opioid receptor (Homo sapiens, UniProt P35372); test: Counterscreen for agonists of heterodimerization of the mu 1 (OPRM1) and delta 1 (OPRD1) opioid receptors: Luminescence-based cell-based high throughput dose response assay to identify agonists of OPRM1 homodimerization.; type: functional;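 note: U2OS cells expressing OPRM1 and beta-arrestin as split beta-galactosidase partners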
[4] = target: 5-hydroxytryptamine receptor 5A (Homo sapiens, UniProt P47898); test: Counterscreen for agonists of OPRM1-OPRD1 heterodimerization: luminescence-based cell-based high throughput dose response assay to identify agonists of 5-hydroxytryptamine (serotonin) 5A receptor (HTR5A). [Related pubchem assays (depositor defined):AID504326, AID504355, AID504692, AID504904, AID504905]; type: functional
Cytochrome P450 3A4 = Cytochrome P450 3A4 (Homo sapiens, UniProt P08684);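 note: CYP3A4 tested as one member of a cytochrome P450 panel screen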
[5] = inhibitors of firefly luciferase expression or activity, dose response, H4 neuroglioma cells, luminescence (AID 1990); type: functional, cell-based
[6] = Luminescence Cell-Based Dose Response HTS to Identify Inhibitors of 5'UTR Stem-Loop Driven Prion Protein mRNA Translation in H4 Neuroglioblastoma Cells. [Related pubchem assays: 1827 (Project Summary), 1813 (Primary HTS)]; type: functional
Beta-galactosidase [7] = target: T2, Beta-galactosidase (Escherichia coli, UniProt Q8VNN2); test: PubChem AID 485352; type: functional
[8] = inhibitors of SNCA 5'UTR-driven reporter translation, confirmation, H4 neuroglioma cells, luminescence (AID 1988); type: functional, cell-based
[9] = target: T3, Type-1 angiotensin II receptor (Homo sapiens, UniProt P30556); test: AT1 receptor antagonists, dose response, selectivity assay for APJ receptor antagonist project, cell-based, uHTS hits (AID 463214); type: functional;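 note: antagonist potency against angiotensin II stimulated AT1 response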
T3 sequence (P30556 whole entry): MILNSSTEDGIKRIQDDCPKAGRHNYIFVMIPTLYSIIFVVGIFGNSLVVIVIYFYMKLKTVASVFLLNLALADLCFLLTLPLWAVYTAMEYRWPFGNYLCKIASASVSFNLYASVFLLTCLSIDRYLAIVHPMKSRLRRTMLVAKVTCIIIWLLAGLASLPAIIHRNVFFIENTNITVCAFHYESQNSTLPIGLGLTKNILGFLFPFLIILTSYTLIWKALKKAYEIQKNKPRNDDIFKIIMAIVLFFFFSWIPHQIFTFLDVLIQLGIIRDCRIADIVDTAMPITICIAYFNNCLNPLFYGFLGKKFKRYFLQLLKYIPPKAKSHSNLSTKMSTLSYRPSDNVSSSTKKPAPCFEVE

Nonstructural protein 1 = Nonstructural protein 1 (Influenza A virus, UniProt Q194T2); type: functional, Influenza A virus (A/California/07/2009(H1N1))
HEK293 = test: inhibitors of LMP1-driven NF-kB reporter, dose response, cell-based, HEK293, luciferase, cherry-pick (AID 588343); type: functional; conditions: Homo sapiens
Vero [10] = test: cells; type: functional, cell-based; conditions: Chlorocebus sabaeus
INS1 = test: beta cell apoptosis inhibitors, cytokine rescue, dose response, luminescence, retest (AID 449756); type: functional, cell-based; conditions: Rattus norvegicus;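 note: cell death triggered by IL-1 beta plus TNF-alpha plus IFN-gamma mixture; protective hits raise ATP signal compared with cytokine alone wells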
Vero [11] = test: cells; type: functional; conditions: Chlorocebus sabaeus
Beta-galactosidase [12] = target: T2, Beta-galactosidase; test: Dose response counterscreen for EBI2 assay utilizing the enzyme, b-galactosidase.; type: functional
[13] = test system: Streptococcus sp. 'group A'; test: growth inhibition of control SK(-) GAS strain, dose response, counter-screen for streptokinase expression inhibitor project, luminescence, kanamycin, BacTiterGlo, confirmation (AID 1900); type: functional, organism-based
Streptokinase A = target: T4, Streptokinase A (Streptococcus pyogenes serotype M1, UniProt P10520); test: S. pyogenes streptokinase expression inhibitors, potency, dose response, plasminogen activation absorbance, OD405 (AID 1914); type: functional, Streptococcus pyogenes M1 GAS;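 note: secreted streptokinase activity via plasminogen activation per viability signal from cell pellet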
T4 sequence (P10520 whole entry): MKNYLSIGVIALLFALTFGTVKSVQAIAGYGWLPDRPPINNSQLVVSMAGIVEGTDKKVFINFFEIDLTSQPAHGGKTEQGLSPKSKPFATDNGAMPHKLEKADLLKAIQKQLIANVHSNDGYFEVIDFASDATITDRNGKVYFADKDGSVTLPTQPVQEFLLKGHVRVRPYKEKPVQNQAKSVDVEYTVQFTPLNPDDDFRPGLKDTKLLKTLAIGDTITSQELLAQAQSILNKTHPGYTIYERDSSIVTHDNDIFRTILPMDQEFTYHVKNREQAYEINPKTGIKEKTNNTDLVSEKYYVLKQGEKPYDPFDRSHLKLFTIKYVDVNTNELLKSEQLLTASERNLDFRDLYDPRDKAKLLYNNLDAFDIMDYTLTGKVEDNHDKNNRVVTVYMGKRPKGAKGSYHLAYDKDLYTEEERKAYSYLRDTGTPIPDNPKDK

[14] = microbe, parasite or virus in culture; type: functional; conditions: Mycobacterium tuberculosis
Streptococcus = test: Group A Streptococcus viability loss, dose response, counter-screen for streptokinase expression inhibitor project, luminescence, BacTiterGlo (AID 1915); type: functional, organism-based;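 note: potency for reduction of bacterial viability or growth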
[15] = Shn3 3'UTR reporter inhibitors, dose response, cell-based, Clone20 osteoblasts, firefly luciferase, cherry-picked (AID 624132); type: functional;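 note: firefly luciferase luminescence from reporter carrying the Shn3 3'UTR in osteoblasts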
[16] = control 3'UTR Renilla luciferase suppression, dose response, counter-screen for Shn3 inhibitor project, cell-based, Clone20-Shn3RL, cherry-picked (AID 624133); type: functional

T2 sequence (Q8VNN2 whole entry): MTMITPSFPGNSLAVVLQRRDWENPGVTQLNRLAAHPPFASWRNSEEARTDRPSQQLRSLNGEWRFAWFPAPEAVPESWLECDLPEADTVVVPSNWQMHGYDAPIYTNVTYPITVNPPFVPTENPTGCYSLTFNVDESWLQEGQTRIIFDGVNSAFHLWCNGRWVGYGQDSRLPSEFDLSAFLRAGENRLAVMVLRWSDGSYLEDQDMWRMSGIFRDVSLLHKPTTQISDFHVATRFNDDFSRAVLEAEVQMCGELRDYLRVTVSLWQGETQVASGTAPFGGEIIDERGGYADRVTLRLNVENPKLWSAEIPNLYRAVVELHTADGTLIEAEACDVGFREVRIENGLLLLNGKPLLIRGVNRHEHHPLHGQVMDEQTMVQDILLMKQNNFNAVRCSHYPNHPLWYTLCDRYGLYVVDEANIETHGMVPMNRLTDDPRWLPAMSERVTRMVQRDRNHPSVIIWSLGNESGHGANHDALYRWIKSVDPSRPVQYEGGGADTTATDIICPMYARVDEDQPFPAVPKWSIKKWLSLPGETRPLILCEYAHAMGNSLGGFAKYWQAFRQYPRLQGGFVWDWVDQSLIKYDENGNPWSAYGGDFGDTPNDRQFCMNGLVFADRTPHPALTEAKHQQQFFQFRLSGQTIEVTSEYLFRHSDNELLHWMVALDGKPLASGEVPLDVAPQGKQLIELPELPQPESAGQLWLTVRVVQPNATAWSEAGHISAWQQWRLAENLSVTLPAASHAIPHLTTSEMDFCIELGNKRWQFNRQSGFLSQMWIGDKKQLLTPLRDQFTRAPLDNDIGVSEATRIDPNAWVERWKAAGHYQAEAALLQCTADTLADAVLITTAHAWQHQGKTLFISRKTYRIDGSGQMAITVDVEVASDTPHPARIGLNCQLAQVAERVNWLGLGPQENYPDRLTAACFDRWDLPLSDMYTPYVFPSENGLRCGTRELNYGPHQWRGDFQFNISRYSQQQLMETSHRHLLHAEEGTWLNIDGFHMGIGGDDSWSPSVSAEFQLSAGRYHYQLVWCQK
Delta-type opioid receptor, sequence (P41143 whole entry): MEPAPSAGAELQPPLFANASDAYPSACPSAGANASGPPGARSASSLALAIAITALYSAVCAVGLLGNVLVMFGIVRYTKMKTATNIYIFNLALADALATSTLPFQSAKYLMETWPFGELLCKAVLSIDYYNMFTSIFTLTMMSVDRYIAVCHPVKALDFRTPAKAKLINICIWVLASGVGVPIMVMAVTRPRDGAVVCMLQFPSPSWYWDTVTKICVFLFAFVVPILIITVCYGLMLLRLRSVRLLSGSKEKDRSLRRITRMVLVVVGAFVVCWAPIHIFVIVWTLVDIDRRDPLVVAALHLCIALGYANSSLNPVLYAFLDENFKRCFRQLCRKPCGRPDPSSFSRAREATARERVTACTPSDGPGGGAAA
5-hydroxytryptamine receptor 5A, sequence (P47898 whole entry): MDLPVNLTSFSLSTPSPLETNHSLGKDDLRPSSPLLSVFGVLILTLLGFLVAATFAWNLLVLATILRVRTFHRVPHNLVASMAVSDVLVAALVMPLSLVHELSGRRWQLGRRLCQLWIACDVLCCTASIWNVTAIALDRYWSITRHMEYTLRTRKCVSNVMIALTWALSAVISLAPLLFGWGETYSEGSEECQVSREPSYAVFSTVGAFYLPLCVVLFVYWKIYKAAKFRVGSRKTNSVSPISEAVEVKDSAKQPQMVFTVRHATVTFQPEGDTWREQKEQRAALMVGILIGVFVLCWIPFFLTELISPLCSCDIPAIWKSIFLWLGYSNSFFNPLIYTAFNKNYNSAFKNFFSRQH
Mu-type opioid receptor, sequence (P35372 whole entry): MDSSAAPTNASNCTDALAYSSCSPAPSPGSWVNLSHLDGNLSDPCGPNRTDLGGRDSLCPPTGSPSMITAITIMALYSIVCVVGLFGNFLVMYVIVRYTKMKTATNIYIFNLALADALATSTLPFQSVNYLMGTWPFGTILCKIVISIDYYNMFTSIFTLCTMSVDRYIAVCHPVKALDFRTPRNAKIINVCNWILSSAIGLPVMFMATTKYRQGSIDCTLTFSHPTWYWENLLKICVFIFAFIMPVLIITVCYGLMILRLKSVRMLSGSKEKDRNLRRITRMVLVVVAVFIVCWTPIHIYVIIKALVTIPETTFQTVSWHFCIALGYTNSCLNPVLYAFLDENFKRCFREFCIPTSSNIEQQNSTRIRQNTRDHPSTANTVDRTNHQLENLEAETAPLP
Nonstructural protein 1, sequence (Q194T2 whole entry): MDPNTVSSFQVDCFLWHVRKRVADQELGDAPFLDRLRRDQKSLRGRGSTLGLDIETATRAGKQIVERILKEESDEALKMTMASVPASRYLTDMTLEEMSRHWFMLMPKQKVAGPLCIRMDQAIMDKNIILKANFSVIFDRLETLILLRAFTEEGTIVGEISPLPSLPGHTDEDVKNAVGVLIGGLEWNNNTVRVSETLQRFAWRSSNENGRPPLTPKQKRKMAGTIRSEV
Cytochrome P450 3A4, sequence (P08684 whole entry): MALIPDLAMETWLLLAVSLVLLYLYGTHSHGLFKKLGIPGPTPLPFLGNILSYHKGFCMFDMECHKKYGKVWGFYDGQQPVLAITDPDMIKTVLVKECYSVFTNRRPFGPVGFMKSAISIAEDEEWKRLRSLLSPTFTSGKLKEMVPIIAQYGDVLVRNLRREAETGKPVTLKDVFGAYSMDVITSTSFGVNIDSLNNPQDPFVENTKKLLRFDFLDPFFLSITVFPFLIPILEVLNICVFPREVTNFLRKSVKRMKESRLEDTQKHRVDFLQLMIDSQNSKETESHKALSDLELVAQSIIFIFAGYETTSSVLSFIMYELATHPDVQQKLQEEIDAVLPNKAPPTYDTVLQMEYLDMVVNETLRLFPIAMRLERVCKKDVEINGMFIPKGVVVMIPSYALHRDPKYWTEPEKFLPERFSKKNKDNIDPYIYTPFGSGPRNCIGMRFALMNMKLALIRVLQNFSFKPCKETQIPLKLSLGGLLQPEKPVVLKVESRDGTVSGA
Cytochrome P450 2C19, sequence (P33261 whole entry): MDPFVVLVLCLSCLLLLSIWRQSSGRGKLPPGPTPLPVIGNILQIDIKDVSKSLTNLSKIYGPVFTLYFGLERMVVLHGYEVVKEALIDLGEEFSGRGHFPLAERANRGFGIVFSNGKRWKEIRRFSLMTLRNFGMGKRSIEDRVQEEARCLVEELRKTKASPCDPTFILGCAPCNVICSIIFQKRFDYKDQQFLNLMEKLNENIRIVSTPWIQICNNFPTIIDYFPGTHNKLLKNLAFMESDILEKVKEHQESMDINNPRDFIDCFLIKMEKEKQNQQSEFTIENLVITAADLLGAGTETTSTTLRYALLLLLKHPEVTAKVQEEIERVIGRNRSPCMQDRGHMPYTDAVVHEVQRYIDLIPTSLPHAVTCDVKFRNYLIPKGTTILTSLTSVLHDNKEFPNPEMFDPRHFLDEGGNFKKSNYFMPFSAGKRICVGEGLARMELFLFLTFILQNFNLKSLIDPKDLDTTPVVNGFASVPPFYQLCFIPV

CN1C2C=C(N(CCc3c[nH]c4ccccc34)C(=O)c3ccc(Cl)cc3)CC1CC2 (centres undefined)
active: EC50 [1] 0.211 µM | EC50 [2] 0.596 µM
inactive: EC50 [3] > 92.5 µM | EC50 (Mu-type opioid receptor) 47.9 µM | EC50 [4] > 92.5 µM
inconclusive: AC50 (Cytochrome P450 2C19) 5.01 µM | AC50 (Cytochrome P450 3A4) 17.8 µM

C/C(=N/NC(=O)c1ccc(C(C)(C)C)cc1)c1ccccn1
inactive: EC50 (Beta-galactosidase [7]) > 40 µM | IC50 (Beta-galactosidase [12]) > 80 µM
active: EC50 [5] 3.75 µM | EC50 [6] 0.585 µM | EC50 [8] 0.455 µM | IC50 [9] 3.48 µM | IC50 (Nonstructural protein 1) 6.97 µM | AC50 (HEK293) 1.31 µM | IC50 (Vero [10]) > 25 µM | AC50 (INS1) 0.497 µM | CC50 (Vero [11]) 2.62 µM

O=C(CSc1ccccn1)Nc1nonc1[N+](=O)[O-]
active: EC50 [13] 5.77 µM | CC50 [14] 24.5 µM | IC50 (Vero [10]) > 25 µM | CC50 (Vero [11]) 20.7 µM | AC50 [15] 5 µM | AC50 [16] 12.5 µM
> 150 µM (not active): EC50 (Streptokinase A) | EC50 (Streptococcus)

CSCCCNC(=O)c1ccc(OC2CCN(CCc3ccccc3)CC2)cc1
inactive: EC50 [3] > 92.5 µM | EC50 (Mu-type opioid receptor) > 92.5 µM | EC50 [4] > 92.5 µM

Reference: ChEMBL document CHEMBL1201862, “PubChem BioAssay data set” (2004)
